Source: patent publication US20210220374A1, “METHODS OF TREATING TE[…]” (Clarus Therapeutics, Inc., priority 2013, published 2021)

Assays:
[1] = Seven-day repeat-dose pharmacokinetic study (study LOT-A), TU BID; type: in vivo, hypogonadal men; settings: for Baseline-corrected Cavg / Tmax: serum T
Description: (§1) The probability model was based on the pharmacokinetic results obtained from the hypogonadal patient population that participated in the two multi-dose TU treatments in study LOT-A. As noted previously, 29 hypogonadal males participated in the study, 28 of them completed Treatment Period 1 (300 mg T, as TU, BID) and 24 of them completed Treatment Period 3 (200 mg T, as TU, BID).
Formulation B was studied for its acute tolerability and steady-state serum pharmacokinetic profile at two doses administered twice-daily to hypogonadal men. The study was designed as an open-label, repeat dose, cross-over, pharmacokinetic study (with food effect examined in one arm).
Twenty nine (29) hypogonadal men were enrolled after giving written informed consent, 24 of which completed the study. Each subject who completed the study received a regimen of Formulation B as follows: […]
1. 7 daily doses of 600 mg T as TU BID (300 mg/dose), i.e., 3 capsules/dose 2. 8 daily doses of 400 mg T as TU BID (200 mg/dose)
Doses were administered as capsules to subjects 30 minutes after initiation of meals (breakfast and dinner), except for Day 8, when the morning dose was administered fasting.

[2] = Probability model of serum T Cavg and Cmax distributions (titration dosing modeling); set-up: species or system hypogonadal men; settings: nominal model parameter, 200 mg T BID as TU, normal distribution
Excerpt: The fractions of the modeled patient population having their serum T Cavg and Cmax values falling within and/or outside of pre-specified limits and categories, as predicted from the probability model, were monitored and tabulated. The categories of interest were those identified by the FDA in its proposed guidelines for safe and effective hormone replacement therapy, as summarized in Table 2.
as §1
Initially, the distribution of the calculated values of Cavg in the treated population was characterized by a mean and standard deviation assuming that the distribution fit either a normal distribution, or a log-normal distribution. […]
Second, a relationship was identified between serum T Cavg and Cmax using linear regression, such that given an hypothesized Cavg value, an expected value of Cmax could be determined (FIG. 5). […]
Fourth, the fraction of a treated population that fell within one of the 7 bins identified in Table 1 was calculated by: • 1. […]

[3] = Example 1 single-day pharmacokinetic study of Formulation B; type: in vivo, hypogonadal men; settings: 200 mg T equivalents BID with food
Description: The study was designed as an open-label, single-day dosing, sequential, cross-over, pharmacokinetic study.
The doses were administered as capsules to subjects five minutes after a meal (breakfast for QD, and breakfast and dinner for BID).

[4] = Example 4 food effects study of Formulation B; type: in vivo, hypogonadal men
Description: Subjects were randomized to receive the drug in the fasting state or 30 minutes after consumption of meals containing ˜800 calories with specific amounts of fat (wt %): very low fat (6-10%); low fat (20%); “normal” diet fat (30%); or high fat (50%). The “normal” diet was, a priori, established as the comparator (i.e., reference diet) for purposes of statistical comparisons. Serial blood samples were collected for a total of 24 hours after drug administration to determine serum testosterone and dihydrotestosterone (DHT) levels by liquid chromatography-mass spectroscopy (LC/MS/MS).

## CCCCCCCCCCC(=O)O[C@H]1CC[C@H]2[C@@H]3CCC4=CC(=O)CC[C@]4(C)[C@H]3CC[C@]12C [TU, testosterone undecanoate]
[1]; fasting conditions vs meal
  Decrease in serum T exposures (Cmax and AUC): greater than 50%
[1]; in vivo
  DHT concentrations as percent of T concentrations: 11-34%
  Pre-dose steady-state estradiol concentrations: 20 to 30 pg/mL
[1]; prior to Treatment Period 2, after washout
  Mean baseline T concentration (endogenous T production): 152 ng/dL
[1]; prior to Treatment Period 3, after washout
  Mean baseline T concentration (endogenous T production): 139 ng/dL
[1]; prior to Treatment Period 4, after washout
  Mean baseline T concentration (endogenous T production): 145 ng/dL
[1]; 200 mg BID
  Baseline-corrected Cavg: 379 ± 255
[1]; 300 mg BID
  Baseline-corrected Cavg: 586 ± 330
[1]; 300 mg BID, AM dose
  Tmax: 4.5 ± 2.1 h
[1]; 300 mg BID, PM dose
  Tmax: 17.9 ± 2.6 h
[1]; simulated 24-hour profile from 12-hour data, 200 mg T (as TU) BID, fed
  Subjects with serum T Cavg in the eugonadal range over 24 hours: 77%
[2]
  Mean Cavg (CV): 520 (39%)
[3]
  Subjects achieving a serum T Cavg above 300 ng/dL: 75%
[4]; high-fat vs normal-fat meal
  Difference in serum T response: < 30%
[4]; low-fat vs normal fat diet, single 300 mg T dose
  90% confidence interval, serum T PK parameters: 85-125%
